According to ChEMBL document CHEMBL5696442, “Discovery of type II inhibitors of TGFβ-activated kinase 1 (TAK1) and mitogen-activated protein kinase kinase kinase kinase 2 (MAP4K2)” (J Med Chem, 2015):
pIC50: −log10 of the molar value.

Experiments:
[1] = biological target: T1, Mitogen-activated protein kinase 12 (Homo sapiens) (UniProt P53778); assay: Inhibition of p38gamma Lys2 labeling site in human Huh-7 cell lysate at 1 uM by KiNativ Profiling analysis relative to control; format: subcellular
T1 sequence (whole entry): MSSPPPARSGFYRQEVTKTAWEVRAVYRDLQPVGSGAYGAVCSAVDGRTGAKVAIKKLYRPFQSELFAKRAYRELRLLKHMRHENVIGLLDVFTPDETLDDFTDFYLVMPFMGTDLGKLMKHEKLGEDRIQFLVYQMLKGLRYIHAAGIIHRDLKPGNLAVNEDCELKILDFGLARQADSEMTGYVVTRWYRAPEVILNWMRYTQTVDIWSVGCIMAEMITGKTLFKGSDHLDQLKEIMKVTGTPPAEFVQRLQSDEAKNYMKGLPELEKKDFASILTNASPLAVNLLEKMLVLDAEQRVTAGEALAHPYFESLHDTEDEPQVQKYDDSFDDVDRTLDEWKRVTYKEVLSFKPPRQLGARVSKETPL

[2] = biological target: MAP/microtubule affinity-regulating kinase 3 (Homo sapiens) (UniProt P27448); assay: Inhibition of MARK3 Lys2 labeling site in human A-375 cells at 5 uM by KiNativ Profiling analysis relative to control; format: cell-based
[3] = biological target: Tyrosine-protein kinase JAK1 (Homo sapiens) (UniProt P23458); assay: Inhibition of JAK1 in human A-375 cells at 5 uM by KiNativ Profiling analysis relative to control; format: cell-based
[4] = biological target: T2, Aurora kinase A (Homo sapiens) (UniProt O14965); assay: Inhibition of AurA ATP Loop labeling site in human A-375 cells at 0.05 uM by KiNativ Profiling analysis relative to control; format: cell-based
T2 sequence (whole entry): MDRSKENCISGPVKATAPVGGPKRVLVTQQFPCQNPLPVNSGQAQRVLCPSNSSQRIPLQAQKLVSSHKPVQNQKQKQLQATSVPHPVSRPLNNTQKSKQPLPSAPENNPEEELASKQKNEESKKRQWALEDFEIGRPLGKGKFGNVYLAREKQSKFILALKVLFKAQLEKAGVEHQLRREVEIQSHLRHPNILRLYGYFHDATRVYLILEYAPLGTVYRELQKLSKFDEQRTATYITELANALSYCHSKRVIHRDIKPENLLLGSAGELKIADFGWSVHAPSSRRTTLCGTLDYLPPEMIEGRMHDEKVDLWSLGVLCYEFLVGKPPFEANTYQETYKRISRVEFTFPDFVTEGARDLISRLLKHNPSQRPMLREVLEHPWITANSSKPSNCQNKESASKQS

[5] = biological target: Cyclin-dependent kinase 10 (Homo sapiens) (UniProt Q15131); assay: Inhibition of CDK10 Lys2 labeling site in human A-375 cells at 0.05 uM by KiNativ Profiling analysis relative to control; format: cell-based
[6] = biological target: Tyrosine-protein kinase Lyn (Homo sapiens, UniProt P07948); assay: Inhibition of LYN (unknown origin) Lys1 labeling site by KiNativ Profiling analysis
[7] = biological target: T3, Dual specificity mitogen-activated protein kinase kinase 3 (Homo sapiens) (UniProt P46734); assay: Inhibition of MAP2K3 Lys2 labeling site in human A-375 cells at 0.05 uM by KiNativ Profiling analysis relative to control; format: cell-based
T3 sequence (whole entry): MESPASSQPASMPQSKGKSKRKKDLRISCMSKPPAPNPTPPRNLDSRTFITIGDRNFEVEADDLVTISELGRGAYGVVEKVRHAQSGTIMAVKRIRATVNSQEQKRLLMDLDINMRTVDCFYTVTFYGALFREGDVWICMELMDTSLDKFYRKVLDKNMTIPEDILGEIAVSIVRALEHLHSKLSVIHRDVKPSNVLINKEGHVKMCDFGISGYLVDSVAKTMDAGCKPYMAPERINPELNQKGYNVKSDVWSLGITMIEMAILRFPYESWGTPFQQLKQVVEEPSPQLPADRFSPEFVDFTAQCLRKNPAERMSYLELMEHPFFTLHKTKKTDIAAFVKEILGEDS

[8] = biological target: TRAF2 and NCK-interacting protein kinase (Homo sapiens) (UniProt Q9UKE5); assay: Inhibition of ZC2 Lys2 labeling site in human A-375 cells at 0.5 uM by KiNativ Profiling analysis relative to control; format: cell-based
[9] = biological target: T4, Ephrin type-B receptor 4 (Homo sapiens) (UniProt P54760); assay: Inhibition of EphB4 ACT labeling site in human A-375 cells at 0.05 uM by KiNativ Profiling analysis relative to control; format: cell-based
T4 sequence (whole entry): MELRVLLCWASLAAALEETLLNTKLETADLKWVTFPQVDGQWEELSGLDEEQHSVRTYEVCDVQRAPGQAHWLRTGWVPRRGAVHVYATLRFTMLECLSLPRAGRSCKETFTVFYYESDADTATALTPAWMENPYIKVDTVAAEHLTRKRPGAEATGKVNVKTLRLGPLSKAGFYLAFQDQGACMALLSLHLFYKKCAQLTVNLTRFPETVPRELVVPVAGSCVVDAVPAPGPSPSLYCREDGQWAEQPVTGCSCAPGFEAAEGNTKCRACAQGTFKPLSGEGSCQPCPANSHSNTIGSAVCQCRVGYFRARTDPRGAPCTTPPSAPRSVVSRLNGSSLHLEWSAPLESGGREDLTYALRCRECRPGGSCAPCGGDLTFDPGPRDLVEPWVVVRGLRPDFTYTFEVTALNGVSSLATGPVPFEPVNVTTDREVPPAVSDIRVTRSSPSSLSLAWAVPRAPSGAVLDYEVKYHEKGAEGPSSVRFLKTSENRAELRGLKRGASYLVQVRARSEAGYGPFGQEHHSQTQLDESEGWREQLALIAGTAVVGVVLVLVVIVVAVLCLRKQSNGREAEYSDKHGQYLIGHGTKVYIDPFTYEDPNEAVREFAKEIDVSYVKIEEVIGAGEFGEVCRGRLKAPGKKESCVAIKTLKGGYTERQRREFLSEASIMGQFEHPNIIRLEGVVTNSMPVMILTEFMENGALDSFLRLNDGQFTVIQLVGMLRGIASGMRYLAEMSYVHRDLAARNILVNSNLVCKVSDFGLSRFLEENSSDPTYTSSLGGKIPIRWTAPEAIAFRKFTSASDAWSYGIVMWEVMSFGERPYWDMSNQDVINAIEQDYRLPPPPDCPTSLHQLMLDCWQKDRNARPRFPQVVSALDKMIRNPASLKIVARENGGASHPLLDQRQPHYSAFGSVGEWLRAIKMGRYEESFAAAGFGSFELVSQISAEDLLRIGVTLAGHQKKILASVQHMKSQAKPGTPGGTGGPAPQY

[10] = biological target: Cyclin-dependent kinase 17 (Homo sapiens) (UniProt Q00537); assay: Inhibition of PCTAIRE2 Lys1 labeling site harbouring SKLTENLVALKEIRLEHEEGAPCTAIR in human A-375 cells at 5 uM by KiNativ Profiling analysis relative to control; format: cell-based
[11] = biological target: Dual specificity mitogen-activated protein kinase kinase 1 (Homo sapiens) (UniProt Q02750); assay: Inhibition of MAP2K1 Lys2 labeling site harbouring IMHRDVKPSNILVNSR in human A-375 cells at 0.5 uM by KiNativ Profiling analysis relative to control; format: cell-based
Chain of Dual specificity mitogen-activated protein kinase kinase 1 (Homo sapiens) (Q02750 whole entry): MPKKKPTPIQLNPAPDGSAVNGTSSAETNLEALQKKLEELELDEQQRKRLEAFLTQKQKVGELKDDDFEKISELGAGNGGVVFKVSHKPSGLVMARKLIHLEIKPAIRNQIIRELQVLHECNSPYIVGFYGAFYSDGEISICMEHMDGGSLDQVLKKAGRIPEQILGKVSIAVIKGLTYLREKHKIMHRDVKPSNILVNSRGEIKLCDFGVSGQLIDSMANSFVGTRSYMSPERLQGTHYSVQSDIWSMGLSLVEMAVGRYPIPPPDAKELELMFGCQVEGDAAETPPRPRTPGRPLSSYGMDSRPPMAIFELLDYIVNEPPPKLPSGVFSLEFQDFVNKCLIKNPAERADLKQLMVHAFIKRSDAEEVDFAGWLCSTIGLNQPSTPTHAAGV

Chain of TRAF2 and NCK-interacting protein kinase (Homo sapiens) (Q9UKE5 whole entry, looked up): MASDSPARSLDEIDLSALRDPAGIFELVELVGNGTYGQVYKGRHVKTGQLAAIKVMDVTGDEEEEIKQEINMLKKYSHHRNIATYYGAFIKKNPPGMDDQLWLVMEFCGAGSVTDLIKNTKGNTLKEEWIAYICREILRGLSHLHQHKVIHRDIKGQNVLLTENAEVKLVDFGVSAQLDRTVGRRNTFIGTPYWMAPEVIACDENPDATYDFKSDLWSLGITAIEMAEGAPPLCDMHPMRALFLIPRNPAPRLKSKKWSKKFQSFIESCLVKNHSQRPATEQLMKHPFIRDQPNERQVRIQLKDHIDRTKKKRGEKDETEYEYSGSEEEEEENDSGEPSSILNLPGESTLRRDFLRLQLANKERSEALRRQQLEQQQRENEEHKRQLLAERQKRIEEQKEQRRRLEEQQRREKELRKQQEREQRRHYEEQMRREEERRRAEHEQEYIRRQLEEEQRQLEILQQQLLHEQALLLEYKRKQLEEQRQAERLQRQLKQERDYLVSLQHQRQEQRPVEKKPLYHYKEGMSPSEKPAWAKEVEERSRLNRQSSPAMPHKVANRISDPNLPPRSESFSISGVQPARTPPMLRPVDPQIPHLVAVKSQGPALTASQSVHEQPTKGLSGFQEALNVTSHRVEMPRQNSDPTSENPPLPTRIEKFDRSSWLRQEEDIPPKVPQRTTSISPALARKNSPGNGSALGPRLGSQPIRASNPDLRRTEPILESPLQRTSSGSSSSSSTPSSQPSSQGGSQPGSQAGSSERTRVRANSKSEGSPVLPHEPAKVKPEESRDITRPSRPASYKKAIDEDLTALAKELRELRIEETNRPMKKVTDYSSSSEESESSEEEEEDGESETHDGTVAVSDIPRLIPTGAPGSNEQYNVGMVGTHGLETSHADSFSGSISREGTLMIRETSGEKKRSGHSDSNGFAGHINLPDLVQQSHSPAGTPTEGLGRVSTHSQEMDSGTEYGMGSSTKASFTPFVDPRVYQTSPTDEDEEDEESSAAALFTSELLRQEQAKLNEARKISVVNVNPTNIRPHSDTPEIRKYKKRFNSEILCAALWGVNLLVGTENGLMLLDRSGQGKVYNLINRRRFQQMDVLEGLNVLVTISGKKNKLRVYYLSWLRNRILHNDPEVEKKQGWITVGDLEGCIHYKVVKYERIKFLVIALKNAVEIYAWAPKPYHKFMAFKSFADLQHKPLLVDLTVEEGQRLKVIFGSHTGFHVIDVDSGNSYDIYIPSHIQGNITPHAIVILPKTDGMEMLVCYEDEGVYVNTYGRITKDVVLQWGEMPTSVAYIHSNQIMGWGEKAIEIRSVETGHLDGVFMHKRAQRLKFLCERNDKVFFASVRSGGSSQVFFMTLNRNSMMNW
Chain of MAP/microtubule affinity-regulating kinase 3 (Homo sapiens) (P27448 whole entry, looked up): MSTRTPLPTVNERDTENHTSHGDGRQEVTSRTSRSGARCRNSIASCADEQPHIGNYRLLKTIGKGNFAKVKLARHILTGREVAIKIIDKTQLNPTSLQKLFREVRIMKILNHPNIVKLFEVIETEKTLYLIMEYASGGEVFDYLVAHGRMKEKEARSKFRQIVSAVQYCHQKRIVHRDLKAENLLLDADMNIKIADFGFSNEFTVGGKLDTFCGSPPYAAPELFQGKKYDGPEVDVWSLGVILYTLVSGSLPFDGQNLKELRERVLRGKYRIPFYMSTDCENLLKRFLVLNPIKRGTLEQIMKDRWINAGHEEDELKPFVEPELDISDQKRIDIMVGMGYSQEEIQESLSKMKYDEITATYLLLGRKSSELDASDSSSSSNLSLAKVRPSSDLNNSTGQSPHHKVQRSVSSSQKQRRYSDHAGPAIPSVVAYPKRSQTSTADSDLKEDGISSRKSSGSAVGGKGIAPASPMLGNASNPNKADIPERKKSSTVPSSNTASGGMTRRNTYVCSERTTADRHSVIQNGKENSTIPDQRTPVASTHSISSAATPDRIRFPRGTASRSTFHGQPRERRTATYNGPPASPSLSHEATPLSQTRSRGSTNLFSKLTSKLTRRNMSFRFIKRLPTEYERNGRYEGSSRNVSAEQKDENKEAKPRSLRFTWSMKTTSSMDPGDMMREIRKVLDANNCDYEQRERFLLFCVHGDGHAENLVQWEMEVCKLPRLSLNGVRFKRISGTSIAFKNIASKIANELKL
Chain of Tyrosine-protein kinase JAK1 (Homo sapiens) (P23458 whole entry): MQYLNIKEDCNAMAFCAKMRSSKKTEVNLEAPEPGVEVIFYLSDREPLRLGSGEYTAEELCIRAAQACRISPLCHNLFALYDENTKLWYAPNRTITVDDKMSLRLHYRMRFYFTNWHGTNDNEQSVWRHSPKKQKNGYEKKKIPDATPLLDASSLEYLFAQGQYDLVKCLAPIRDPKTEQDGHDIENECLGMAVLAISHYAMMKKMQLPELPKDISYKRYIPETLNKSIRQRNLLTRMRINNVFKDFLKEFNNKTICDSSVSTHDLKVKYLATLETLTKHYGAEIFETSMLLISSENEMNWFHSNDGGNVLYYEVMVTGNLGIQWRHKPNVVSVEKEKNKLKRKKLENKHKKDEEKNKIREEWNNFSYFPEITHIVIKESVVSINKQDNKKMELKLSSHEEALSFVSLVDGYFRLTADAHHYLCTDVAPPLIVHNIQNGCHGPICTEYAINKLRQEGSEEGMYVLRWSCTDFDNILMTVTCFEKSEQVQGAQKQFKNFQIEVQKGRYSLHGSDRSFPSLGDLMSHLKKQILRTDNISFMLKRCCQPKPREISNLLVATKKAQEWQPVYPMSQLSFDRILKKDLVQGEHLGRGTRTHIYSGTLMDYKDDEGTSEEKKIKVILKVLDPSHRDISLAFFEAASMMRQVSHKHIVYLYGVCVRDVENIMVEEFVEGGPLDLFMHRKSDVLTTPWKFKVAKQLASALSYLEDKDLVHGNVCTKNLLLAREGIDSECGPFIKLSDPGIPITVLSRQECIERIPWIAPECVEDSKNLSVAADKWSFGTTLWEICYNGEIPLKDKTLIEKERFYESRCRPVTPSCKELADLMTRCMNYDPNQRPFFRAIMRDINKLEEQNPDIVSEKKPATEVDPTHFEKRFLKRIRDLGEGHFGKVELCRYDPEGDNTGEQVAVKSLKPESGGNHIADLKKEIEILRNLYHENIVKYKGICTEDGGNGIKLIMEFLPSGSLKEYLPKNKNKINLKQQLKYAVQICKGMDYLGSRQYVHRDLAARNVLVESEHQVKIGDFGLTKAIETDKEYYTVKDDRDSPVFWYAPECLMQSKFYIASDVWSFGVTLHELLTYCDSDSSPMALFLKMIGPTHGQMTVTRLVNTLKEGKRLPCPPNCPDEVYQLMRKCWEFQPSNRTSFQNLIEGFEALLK
Chain of Tyrosine-protein kinase Lyn (P07948 whole entry): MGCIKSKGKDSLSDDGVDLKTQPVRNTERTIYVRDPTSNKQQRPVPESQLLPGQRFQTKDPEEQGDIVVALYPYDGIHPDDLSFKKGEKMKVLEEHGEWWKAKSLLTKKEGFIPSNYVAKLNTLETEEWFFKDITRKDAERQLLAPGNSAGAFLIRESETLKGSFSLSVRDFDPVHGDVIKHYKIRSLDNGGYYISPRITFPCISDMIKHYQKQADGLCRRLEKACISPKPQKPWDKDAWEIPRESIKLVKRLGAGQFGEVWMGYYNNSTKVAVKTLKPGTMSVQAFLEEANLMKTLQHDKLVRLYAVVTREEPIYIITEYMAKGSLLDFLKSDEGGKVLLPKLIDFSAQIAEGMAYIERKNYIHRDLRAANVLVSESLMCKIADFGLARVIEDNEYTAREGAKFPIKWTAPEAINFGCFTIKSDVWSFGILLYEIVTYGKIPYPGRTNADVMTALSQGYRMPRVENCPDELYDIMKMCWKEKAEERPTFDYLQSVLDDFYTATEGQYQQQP
Chain of Cyclin-dependent kinase 17 (Homo sapiens) (Q00537 whole entry, looked up): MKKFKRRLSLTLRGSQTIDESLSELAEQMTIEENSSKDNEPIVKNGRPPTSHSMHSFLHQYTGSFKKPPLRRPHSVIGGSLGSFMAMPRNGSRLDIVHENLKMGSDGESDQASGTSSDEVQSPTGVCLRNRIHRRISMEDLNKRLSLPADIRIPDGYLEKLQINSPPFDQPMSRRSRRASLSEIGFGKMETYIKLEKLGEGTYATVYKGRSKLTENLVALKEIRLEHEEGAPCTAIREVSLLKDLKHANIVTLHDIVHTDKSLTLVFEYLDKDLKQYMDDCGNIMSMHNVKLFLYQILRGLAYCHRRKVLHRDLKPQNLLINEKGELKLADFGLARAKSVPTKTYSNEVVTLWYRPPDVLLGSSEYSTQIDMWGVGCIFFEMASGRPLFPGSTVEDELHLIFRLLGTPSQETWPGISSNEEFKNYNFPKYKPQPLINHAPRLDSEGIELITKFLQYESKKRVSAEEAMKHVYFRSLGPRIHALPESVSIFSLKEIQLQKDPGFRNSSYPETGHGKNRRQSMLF
Chain of Cyclin-dependent kinase 10 (Homo sapiens) (Q15131 whole entry): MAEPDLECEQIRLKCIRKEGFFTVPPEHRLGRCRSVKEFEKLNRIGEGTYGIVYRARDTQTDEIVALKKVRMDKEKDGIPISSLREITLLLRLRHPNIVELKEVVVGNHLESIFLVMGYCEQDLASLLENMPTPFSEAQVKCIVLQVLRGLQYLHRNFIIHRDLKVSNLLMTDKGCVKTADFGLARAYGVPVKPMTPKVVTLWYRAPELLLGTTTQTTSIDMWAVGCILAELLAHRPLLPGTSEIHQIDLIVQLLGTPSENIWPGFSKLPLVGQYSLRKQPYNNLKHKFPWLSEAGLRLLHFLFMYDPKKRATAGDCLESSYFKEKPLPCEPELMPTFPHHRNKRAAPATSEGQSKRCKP

| SMILES | inhibition [1] [%] | inhibition [2] [%] | inhibition [3] [%] | inhibition [4] [%] | inhibition [5] [%] | pIC50 [6] | inhibition [7] [%] | inhibition [8] [%] | inhibition [9] [%] | inhibition [10] [%] | inhibition [11] [%] |
| --- | --- | --- | --- | --- | --- | --- | --- | --- | --- | --- | --- |
| CNc1cc(Oc2cc(C(=O)Nc3cc(-n4cnc(C)c4)cc(C(F)(F)F)c3)ccc2C)ncn1 | 5.5 | – | – | – | – | – | – | – | – | – | – |
| CNc1cc(Oc2cc(C(=O)Nc3cc(N4CCN(C)CC4)cc(C(F)(F)F)c3)ccc2C)ncn1 | 12.8 | – | – | – | – | – | – | – | – | – | – |
| CCN1CCN(Cc2ccc(NC(=O)c3ccc(C)c(Oc4ccnc5[nH]ccc45)c3)cc2C(F)(F)F)CC1 | – | 7.8 | 3.9 | 32.5 | 7.8 | 7.89 | 12.6 | 70.8 | 3.4 | 56.6 | 28.4 |
| CCN1CCN(Cc2ccc(NC(=O)c3ccc(C)c(/C=C/c4cnc5[nH]ccc5c4OC)c3)cc2C(F)(F)F)CC1 | – | 8.9 | 27 | 14.1 | 30.7 | 7.53 | 2.6 | 48.1 | 33.4 | 21.3 | 19.2 |
